According to patent US5998596A, “Inhibition of protein kinase activity by aptameric action of oligonucleotides” (The United States of America as represented by the …):
Entries after “also recorded” stand apart in the source; their conditions may differ. In the oligonucleotide strings, read from the 5' end, every base follows the letter of its sugar. An asterisk marks phosphorothioate; unmarked linkages are phosphodiester. Other units and linkages are bracketed, terminal groups are in braces. A string of capitals states the bases alone. d = 2'-deoxy (DNA)

Assays:
[1] = tested on: cellular phosphotyrosine content of K562 cells; assay: Western analysis of total cellular phosphotyrosine content after electroporation of K562 cells; type: cell-based, human; conditions: K562 cells electroporated with 100 μM ODN, one hour later
Protocol: One hundred micrograms of protein from cell lysates were separated on a 7% SDS polyacrylamide gel. Transfer was performed overnight at 50 volts, 4° C., in a 0.2 M glycine, 25 mM Tris, pH 8.3, 0.15% SDS, 20% methanol buffer, onto […] nitrocellulose (Schleicher and Schuell Inc.). For cellular phosphotyrosine blots, Western probing was performed as described previously, with modifications (SARTOR, et al, 1991). Briefly, membranes were blocked for 2 hours with 5% albumin in TTBS (20 mM Tris HCL, pH 7.6; 0.05% Tween 20; 0.9% sodium chloride), probed for 1 hour with antiphosphotyrosine antibody (Upstate Biotechnology Inc., Lake Placid, N.Y.) diluted 1:500 in TTBS, followed by rabbit anti-mouse antibody (Cappel Research Products) and then [^125 I] protein A Sepharose (Amersham Corp., Arlington Heights, Ill.). Membranes were exposed to Kodak X-OMAT AR film overnight at -70° C. with intensifying screens.
Electroporation was performed as described (40). Briefly, 1-5×10^6 cells in 1 ml of RPMI 1640 with 10% fetal calf serum were placed into 0.4 cm gap electroporation chambers and electroporated with a Cell-Porator Electroporation System 1 (all from GIBCO BRL, Grand Island, N.Y.) at 800 microfarrads, 300 volts, at room temperature. Cells were then incubated at 37° C. for 1 hour before manipulation.
In K562 cells p210^bcr-abl is a major kinase responsible for protein tyrosine phosphorylation (38, 39). Changes in enzyme activity are therefore reflected by changes in cellular phosphotyrosine content.

K562 cells = assay: K562 colony formation in soft agar; type: cell-based, human; conditions: 50 μM ODN, two weeks, not electroporated
Protocol: K562, NIH 3T3, and A431 cells were purchased from the American Type Culture Collection (Rockville, Md.). PC3M prostate cancer cells were a generous gift from J. Trepel (National Institutes of Health, Bethesda, Md.). K562 and PC3M cells were cultured in RPMI 1640 with 10% heat-inactivated fetal bovine serum (FBS; GIBCO BRL, Grand Island, N.Y.) while NIH 3T3 and A431 cells were cultured in Dulbecco's modified Eagle's medium (Biofluids, Rockville, Md.) with 10% heat inactivated FBS. Cells were maintained at 37° C., 6% carbon dioxide with biweekly media changes. For soft agar cloning, cells were suspended in 0.3% low melting temperature agarose (SeaPlaque FMC BioProducts, Rockland, Me.) in RPMI 1640 with 10% total calf serum and maintained as above.
To evaluate the effects of these various ODNs of K562 cell growth, both growth in liquid culture and growth in soft agar were examined. […] Cells were electroporated in the presence of 50 μM ODN and kept in liquid culture. For soft agar cloning experiments, cells were not electroporated, but were grown in the presence of 50 μM ODN for two weeks. Liquid cultures were replenished with fresh medium containing 50 μM ODN. Two weeks following incubation in liquid culture, the number of trypan blue-excluding cells was determined. No effect on cell growth in liquid culture could be observed with any ODN tested (data not shown).

[2] = tested on: p210^bcr-abl kinase in K562 cells; assay: Immunoprecipitation kinase assay of p210bcr-abl from ODN treated K562 cells; type: cell-based, human; conditions: K562 cells incubated 3 days with 50 μM ODN, washed
Protocol: (§1) Immunoprecipitation kinase assays of p210^bcr-abl p145^abl were performed as described, with modifications (15). Briefly, for p210^bcr-abl, 1 μg of anti-bcr antibody (clone 7C6, Oncogene Science, Uniondale, N.Y.) was added to lysates prepared from 0.5-1×10^6 K562 cells. For p145^abl, 1 μg of anti-c-abl antibody (clone 24-21), which binds to the C-terminal domain of p145^abl, was added to lysates prepared from 5×10^6 PC3M cells. After incubating 1 hour at 4° C., complexes were precipitated by incubating with protein A-Sepharose coated with rabbit anti-mouse immunoglobulin (Cappel Research Products, Durham, N.C.) for 30 minutes. The complexes were then washed as follows: ABL lysis buffer×2, PBS×1, and ABL assay buffer×1 (24 mM imidazole, pH 7.2, 1 mg/ml bovine serum albumin, and 10 mM MnCl). For p145^abl assays ABL assay buffer contained 20 mM MnCl. To access the activity of p210^bcr-abl on substrate phosphorylation, acid inactivated enolase (Sigma Chemical Co., St. Louis, Mo.) was added as described (15).
(§2) ODNs were added to kinase reaction buffers not more than 5 minutes prior to the addition of ATP. Reactions were initiated by the addition of [γ^-32 P] ATP (3000 Ci/mmole; Amersham Corp., Arlington Heights, Ill.) and quenched by the addition of 5× gel loading buffer and heating to 95° C. Kinase reactions were run for 1-10 minutes at room temperature, except for EGFR, p145^abl, and MAP kinase, which were run at 30° C. The products were then electrophoresed on SDS-polyacrylamide gels: 7% for p210^bcr-abl, EGFR, and PDGFR, 8% for p145^abl, 10% for src, lck, and cdc-2 kinase, and 12% for MAP kinase. Gels were dried and reaction products were visualized by direct autoradiography at -70° C. with Kodak X-OMAT AR film. To determine the inhibitory concentration 50, i.e., the concentration required to inhibit enzyme activity by 50% (IC50) and Ki values, gel slices containing the band of interest were excised and analyzed by Cerenkov counting.
The effects of ODN1 on a cellular system were assessed. […] After 3 days, cells were washed and p210^bcr-abl kinase activity was measured. […] Neither cellular p210^bcr-abl protein content nor cell growth was affected by ODN treatment (data not shown).

p210^bcr-abl kinase = assay: Immunoprecipitation kinase assay of p210bcr-abl (autophosphorylation), ODN added to kinase reaction; type: biochemical, human; conditions: for inhibition of p210^bcr-abl kinase activity in vitro (in words): ODN at 1 μM added to the immunoprecipitated enzyme; for Percent Remaining Activity of p210^bcr-abl kinase relative to control: ODN 1 μM, phosphorothioate capped, mean ± SE of three experiments
Protocol: The p210^bcr-abl kinase, src kinase and cdc-2 kinase were immunoprecipitated from K562 cells. The p145^abl kinase was immunoprecipitated from PC3M cells, PDGF receptor kinase from 3T3 cells, and EGF receptor kinase from A431 cells. MAP kinase was utilized as a pure protein and lck kinase was immunoprecipitated from peripheral blood lymphocytes of a normal volunteer.
Cells were washed in phosphate buffered saline (PBS) and 0.5-5×10^6 cells were solubilized in 1 ml of the specified cell lysis buffers. Unless otherwise stated, all cell lysis buffers contained the following protease inhibitors: 20 μg/ml leupeptin, 1 μg/ml aprotinin, and 1 mM phenylmethylsulfonylfluroide. For p210^bcr-abl and […] immunoprecipitation, cells were lysed with ABL lysis buffer (25 mM imidazole, pH 7.2, 0.5% NP40, 50 mM NaCl, 1 mM Na3 VO4) and lysates were clarified at 14,000 g. 4° C. for 30 minutes. Cell lysis for all other proteins was performed according to the references describing the various immunoprecipitation kinase assays.
as §1, §2

MAP kinase = assay: inhibition; conditions: PS, two linkages at each of 5' and 3' ends, rest phosphodiester; 30 C
PDGF receptor (PDGFR) = assay: inhibition; conditions: PS, two linkages at each of 5' and 3' ends, rest phosphodiester; autophosphorylation
[3] = listed as BCR-AS all-phosphorothioate

Q: Which “total cellular protein phosphotyrosine content” value [1] does the source give for “5'-TCCAGGCTGCTGCCCCATAAA-3' (chemistry not given here) [ABL-1bAS, complementary to nucleotides -3 to +18 of the abl lb mRNA]” here?
A: less marked effects

Q: With “5'-TGTACGTCCGGCTTACTAGTA-3' (chemistry not given here) [B/A-SCR, scrambled version of the B/A ODN]” as the substance, how does the “ability to form colonies in soft agar” value (K562 cells) read?
A: inhibited the ability of these cells to form colonies in soft agar

Q: And the “total cellular protein phosphotyrosine content” value [1]?
A: effectively lowered protein phosphotyrosine content; also recorded: reduced protein phosphotyrosine content

Q: And the “p210^bcr-abl kinase activity of ODN treated K562 cells” value [2]?
A: did

Q: For GGCG, which “inhibition of p210^bcr-abl kinase activity in vitro (in words)” value (from here on “inhibition”) (p210^bcr-abl kinase) is on record?
A: no inhibitory activity

Q: Which “inhibition” value (p210^bcr-abl kinase) does the source give for “5'-GTCCACCATGGCGCGGCCGGC-3' [ODN1 2'-methoxy modified sugars] (2'-O-methyl modified sugars, pattern not given here)” here?
A: least effective

Q: For “5' CCGACCACTTCCGAGTACTAG-3' (chemistry not given here) [ABL-1bSCR, the scrambled version of ABL-1bAS]”, which “total cellular protein phosphotyrosine content” value [1] is on record?
A: less marked effects

Q: Which “inhibition” value (p210^bcr-abl kinase) does the source give for “5'-GTCCACCATGGCGCGGCCGGC-3' [ODN1 all phosphorothioate] (DNA dG*dT*dC*dC*dA*dC*dC*dA*dT*dG*dG*dC*dG*dC*dG*dG*dC*dC*dG*dG*dC)” here?
A: most potent inhibitor

Q: And the “inhibition” value (p210^bcr-abl kinase; [3])?
A: most effective inhibitor

Q: And the “total cellular protein phosphotyrosine content” value [1, 3]?
A: no effect

Q: With “5' TGCCCAACGTCGCGCCGGCGG 3' (chemistry not given here) [ODN1B, scrambled version of ODN1]” as the substance, how does the “Percent Remaining Activity of p210^bcr-abl kinase relative to control” value (p210^bcr-abl kinase) read?
A: 59 ± 6.4%

Q: Which “Percent Remaining Activity of p210^bcr-abl kinase relative to control” value (p210^bcr-abl kinase) does the source give for “5' GGCGGCCGCGCTGCAACCCGT 3' (chemistry not given here) [ODN1A, scrambled version of ODN1]” here?
A: 42 ± 6.9%

Q: “GTCCACCATGGCGCGGCCGGC [ODN1 (BCR-AS), phosphorothioate capped]” was tested. Which IC50 (MAP kinase) did it give?
A: > 100 µM

Q: And the IC50 (PDGF receptor (PDGFR))?
A: 4.4 µM

Q: With “5' GGCGGCGGCGGCGGCGGCGGC 3' (chemistry not given here) [SEQ ID NO.: 11, 21mer consisting of seven tandem GGC repeats]” as the substance, how does the “inhibition” value (p210^bcr-abl kinase) read?
A: inhibitory activity equivalent to ODN1

Q: For “5'-GTCCACCATGGCGCGGCCGGC-3' [ODN1 all phosphodiester] (unmodified DNA)”, which “inhibition” value (p210^bcr-abl kinase) is on record?
A: intermediate potencies

Q: What about the “total cellular protein phosphotyrosine content” value ([1]; listed as BCR-AS phosphodiester) of the same substance?
A: equally effective

Q: Which “Percent Remaining Activity of p210^bcr-abl kinase relative to control” value (p210^bcr-abl kinase) does the source give for “5' GGCCGTGCAGCTCGCACCGGC 3' (chemistry not given here) [ODN1C, scrambled version of ODN1]” here?
A: 74 ± 15%

Q: Which results are given for “5'-CGCTGAAGTTTTGAACTCTGC-3' (chemistry not given here) [B/A-AS, spans the bcr-abl fusion region, complementary to 11 bcr and 10 abl nucleotides of the mature fusion transcript]”?
A: ability to form colonies in soft agar (K562 cells): failed to effect the cloning ability of the cells; total cellular protein phosphotyrosine content [1]: less marked effects; also recorded: no effect; p210^bcr-abl kinase activity of ODN treated K562 cells [2]: inhibited kinase activity

Q: Which results are given for “5' TCCGCGAACCCGGTGCGCCGG 3' (chemistry not given here) [ODN1D, scrambled version of ODN1 / BCR-AS]”?
A: ability to form colonies in soft agar (K562 cells): inhibited the ability of these cells to form colonies in soft agar; Percent Remaining Activity of p210^bcr-abl kinase relative to control (p210^bcr-abl kinase): 79 ± 79%; inhibition of p210^bcr-abl kinase activity in vitro (in words) (p210^bcr-abl kinase): does not inhibit kinase activity; total cellular protein phosphotyrosine content ([1]; listed as BCR-SCR): effectively lowered protein phosphotyrosine content; also recorded: reduced protein phosphotyrosine content; p210^bcr-abl kinase activity of ODN treated K562 cells [2]: did not inhibit kinase activity
